From PubChem BioAssay (NCI)
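Exposure lasted 48 hours, with cells grown in 96-well plates and compounds tested at five concentrations. GI50: concentration for 50% inhibition of growth. The concentration for full growth arrest is given as TGI.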 Where a SMILES comes first, the peptide text is derived from it. The star is where a group is joined. Cbz = O=C(OCc1ccccc1)*; Bn = c1ccc(C*)cc1

Tests used:
Test in all cases: NCI-60 cell line screen, 48 h
SK-MEL-28 melanoma = test system: SK-MEL-28 melanoma
HT29 colon = test system: HT29 colon
SF-295 CNS = test system: SF-295 CNS
KM12 colon = test system: KM12 colon
NCI-H226 lung = test system: NCI-H226 lung
SK-MEL-2 melanoma = test system: SK-MEL-2 melanoma
RXF 393 renal = test system: RXF 393 renal
NCI-H522 lung = test system: NCI-H522 lung
RPMI-8226 leukemia = test system: RPMI-8226 leukemia
MCF7 breast = test system: MCF7 breast
SN12C renal = test system: SN12C renal

SMILES | TGI (SK-MEL-28 melanoma) [µM] | TGI (HT29 colon) [µM] | TGI (SF-295 CNS) [µM] | TGI (KM12 colon) [µM] | TGI (NCI-H226 lung) [µM] | TGI (SK-MEL-2 melanoma) [µM] | TGI (RXF 393 renal) [µM] | TGI (NCI-H522 lung) [µM] | TGI (RPMI-8226 leukemia) [µM] | TGI (MCF7 breast) [µM] | TGI (SN12C renal) [µM] | GI50 (SK-MEL-28 melanoma) [µM] | GI50 (SF-295 CNS) [µM] | GI50 (KM12 colon) [µM] | GI50 (NCI-H226 lung) [µM] | GI50 (RPMI-8226 leukemia) [µM] | GI50 (SN12C renal) [µM] | GI50 (SK-MEL-2 melanoma) [µM] | GI50 (NCI-H522 lung) [µM]
CCn1c(=O)c(C(=O)O)c(Cl)c2cc3c(cc21)OCO3 | > 100 | > 100 | > 100 | > 100 | > 100 | > 100 | > 100 | > 100 | > 100 | > 100 | > 100 | – | – | – | – | – | – | – | –
CC(=O)OCC1OC(NC(=O)N(CCCl)N=O)C(OC(C)=O)C(OC(C)=O)C1OC(C)=O (stereo unspecified) | > 100 | > 100 | > 100 | > 100 | – | > 100 | > 100 | > 100 | > 100 | > 100 | > 100 | – | – | – | – | – | – | – | –
CC1C[C@]2(C[C@@H](C)C(=O)O2)OC2CC3(C)C4CCC5C(C)(C)OC(=O)CC[C@@]56C[C@@]46CC[C@]3(C)C12 (stereo partly specified) | > 100 | > 100 | > 100 | > 100 | > 100 | > 100 | > 100 | – | > 100 | – | > 100 | – | – | – | – | – | – | – | –
c1ccc(-c2n(Cc3ccc4ccccc4c3)c3ccccc3[n+]2Cc2ccc3ccccc3c2)cc1 | 1.31 | – | 1.11 | 1.2 | 2.01 | – | – | – | 1.47 | – | 1.1 | 0.359 | 0.306 | 0.321 | 0.352 | 0.208 | 0.308 | – | –
N=C(N)c1ccc(-c2ccc(-c3ccc4ccccc4c3)s2)s1 | 6.02 | – | 5.99 | 4.08 | 79.2 | 5.7 | – | 4.77 | 5.02 | – | 3.74 | 2.25 | 2.27 | 1.92 | 33.6 | 2.3 | 1.87 | 2.52 | 1.96
COC(=O)C(Cc1ccc(O)cc1)NC(=O)C(COCc1ccccc1)NC(=O)OCc1ccccc1 (stereo unspecified) (Cbz-Ser(Bn)-Tyr-OMe; configuration not given here) | 35.9 | 28.6 | 35.3 | 35 | 36.9 | 40.8 | 33.9 | 37.3 | > 100 | 36.6 | 32.7 | – | – | – | – | – | – | – | –
C1CSCCSCSCCS1 | > 100 | > 100 | > 100 | > 100 | > 100 | > 100 | > 100 | > 100 | – | > 100 | > 100 | – | – | – | – | – | – | – | –
COc1ccc(-c2oc3cc(OC(C)=O)cc(OC(C)=O)c3c(=O)c2OC)cc1 | 35.5 | 36.3 | 37.8 | – | – | – | – | 5.28 | 38.3 | 48.4 | – | – | – | – | – | – | – | – | –
CCCCSCC(NC(=O)/C=C/c1c(C)[nH]c(=O)[nH]c1=O)C(=O)OC (stereo unspecified) | 317 | 357 | 272 | 157 | 291 | 121 | 267 | 132 | 267 | 114 | 269 | – | – | – | – | – | – | – | –
C=CCOCCC(CC=C)C(=O)CC(=O)OC (stereo unspecified) | > 100 | > 100 | > 100 | > 100 | > 100 | > 100 | > 100 | > 100 | > 100 | – | > 100 | – | – | – | – | – | – | – | –
CS(=O)(=O)c1ccc2nc(-c3ccc(O)cc3)sc2c1 | – | 26 | 30.3 | 30.2 | 36.6 | 36.3 | 32.9 | 29.6 | 35.7 | 35.5 | 35.5 | – | – | – | – | – | – | – | –
